The results in this text go back to patent publication US20240024488A1, “COMPOUNDS AND USES THEREOF” (Foghorn Therapeutics Inc., priority 2020, published 2024).

In test [1] the target is T1, HiBit-BRM fusion protein (Homo sapiens, UniProt P51531).
T1 construct: expressed in transfected cells
Kind of test: HiBiT-BRM cell-based degradation assay (Nano-Glo HiBiT Lytic Detection, 24 h). The conditions noted are these: HeLa cell line expressing HiBiT-BRM; for DC50: read-out: BRM HiBit Degradation IC50. The method, boiled down: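 Percent BRM loss was derived from HiBiT luminescence relative to DMSO-treated cells and cells given 2 μM of a known BRM/BRG1 degrader. Treatment lasted 24 h in HiBiT-BRM HeLa cells, with a top final concentration of 30 μM.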

Test [2] deals with T2, HiBit-BRG1 fusion protein (Homo sapiens, UniProt P51532).
T2 construct: expressed in transfected cells
T2 sequence (P51532 whole entry, the tested form may be a part): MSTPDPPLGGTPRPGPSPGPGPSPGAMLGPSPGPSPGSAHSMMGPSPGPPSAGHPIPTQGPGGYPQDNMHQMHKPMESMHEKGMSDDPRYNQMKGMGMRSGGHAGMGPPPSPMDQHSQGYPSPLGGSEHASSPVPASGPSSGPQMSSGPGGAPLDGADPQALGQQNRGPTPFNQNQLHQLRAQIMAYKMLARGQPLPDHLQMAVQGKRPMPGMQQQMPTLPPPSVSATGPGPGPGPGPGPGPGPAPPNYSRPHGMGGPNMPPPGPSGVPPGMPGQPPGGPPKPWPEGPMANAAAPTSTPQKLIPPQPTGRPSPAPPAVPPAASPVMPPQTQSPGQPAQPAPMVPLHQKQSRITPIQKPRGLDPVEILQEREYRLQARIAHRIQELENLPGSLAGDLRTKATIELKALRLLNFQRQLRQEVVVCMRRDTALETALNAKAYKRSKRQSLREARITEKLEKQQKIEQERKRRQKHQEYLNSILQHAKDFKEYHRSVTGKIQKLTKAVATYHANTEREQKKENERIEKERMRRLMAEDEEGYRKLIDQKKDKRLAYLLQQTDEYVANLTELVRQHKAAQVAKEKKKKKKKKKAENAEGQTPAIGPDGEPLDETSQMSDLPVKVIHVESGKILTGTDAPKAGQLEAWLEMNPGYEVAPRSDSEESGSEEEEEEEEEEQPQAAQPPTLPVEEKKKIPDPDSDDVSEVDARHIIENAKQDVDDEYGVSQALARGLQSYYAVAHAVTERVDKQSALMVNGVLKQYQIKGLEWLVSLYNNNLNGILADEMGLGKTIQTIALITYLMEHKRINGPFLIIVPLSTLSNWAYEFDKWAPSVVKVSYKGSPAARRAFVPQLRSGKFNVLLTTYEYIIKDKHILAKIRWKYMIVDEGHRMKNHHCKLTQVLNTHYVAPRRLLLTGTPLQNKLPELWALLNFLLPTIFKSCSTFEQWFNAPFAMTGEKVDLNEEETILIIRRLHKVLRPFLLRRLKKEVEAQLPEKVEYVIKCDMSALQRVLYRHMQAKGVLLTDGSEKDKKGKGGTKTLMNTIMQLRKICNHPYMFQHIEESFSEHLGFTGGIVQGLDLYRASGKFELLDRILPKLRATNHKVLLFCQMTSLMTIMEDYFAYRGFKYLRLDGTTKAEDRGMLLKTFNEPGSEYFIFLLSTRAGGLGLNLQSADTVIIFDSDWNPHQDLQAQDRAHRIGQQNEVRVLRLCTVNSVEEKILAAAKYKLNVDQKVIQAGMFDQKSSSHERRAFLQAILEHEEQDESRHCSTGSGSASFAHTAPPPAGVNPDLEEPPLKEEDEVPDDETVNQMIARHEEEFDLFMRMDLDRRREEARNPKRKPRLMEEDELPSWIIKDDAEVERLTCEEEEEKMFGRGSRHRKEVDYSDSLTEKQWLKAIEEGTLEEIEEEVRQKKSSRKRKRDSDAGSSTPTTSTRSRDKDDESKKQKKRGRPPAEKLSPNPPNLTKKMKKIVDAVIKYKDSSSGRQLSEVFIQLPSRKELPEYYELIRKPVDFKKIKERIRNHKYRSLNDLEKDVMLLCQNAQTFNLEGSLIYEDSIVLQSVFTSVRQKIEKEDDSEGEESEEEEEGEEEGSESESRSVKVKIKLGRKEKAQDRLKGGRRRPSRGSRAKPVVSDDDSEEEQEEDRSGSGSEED
Kind of test: HiBiT-BRG1 cell-based degradation assay (Nano-Glo HiBiT Lytic Detection, 24 h). Particulars: HeLa cell line expressing HiBit-BRG1 and LgBit; for Dmax: read-out: BRG1 HiBit Degradation Maximum (%); for DC50: read-out: BRMG1 HiBit Degradation IC50. The method, boiled down: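 Luminescence from reconstituted NanoBiT luciferase after lytic detection served as read-out of remaining HiBit-BRG1 in stable HeLa cells, which also express LgBit. Cells were seeded at 5000 per well and incubated with compound for 24 h. DMSO and a 2 μM known degrader defined the control range.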
(In general: The HiBiT peptide binds its large partner to form an active luciferase.)

T1 sequence (P51531 whole entry, the tested form may be a part): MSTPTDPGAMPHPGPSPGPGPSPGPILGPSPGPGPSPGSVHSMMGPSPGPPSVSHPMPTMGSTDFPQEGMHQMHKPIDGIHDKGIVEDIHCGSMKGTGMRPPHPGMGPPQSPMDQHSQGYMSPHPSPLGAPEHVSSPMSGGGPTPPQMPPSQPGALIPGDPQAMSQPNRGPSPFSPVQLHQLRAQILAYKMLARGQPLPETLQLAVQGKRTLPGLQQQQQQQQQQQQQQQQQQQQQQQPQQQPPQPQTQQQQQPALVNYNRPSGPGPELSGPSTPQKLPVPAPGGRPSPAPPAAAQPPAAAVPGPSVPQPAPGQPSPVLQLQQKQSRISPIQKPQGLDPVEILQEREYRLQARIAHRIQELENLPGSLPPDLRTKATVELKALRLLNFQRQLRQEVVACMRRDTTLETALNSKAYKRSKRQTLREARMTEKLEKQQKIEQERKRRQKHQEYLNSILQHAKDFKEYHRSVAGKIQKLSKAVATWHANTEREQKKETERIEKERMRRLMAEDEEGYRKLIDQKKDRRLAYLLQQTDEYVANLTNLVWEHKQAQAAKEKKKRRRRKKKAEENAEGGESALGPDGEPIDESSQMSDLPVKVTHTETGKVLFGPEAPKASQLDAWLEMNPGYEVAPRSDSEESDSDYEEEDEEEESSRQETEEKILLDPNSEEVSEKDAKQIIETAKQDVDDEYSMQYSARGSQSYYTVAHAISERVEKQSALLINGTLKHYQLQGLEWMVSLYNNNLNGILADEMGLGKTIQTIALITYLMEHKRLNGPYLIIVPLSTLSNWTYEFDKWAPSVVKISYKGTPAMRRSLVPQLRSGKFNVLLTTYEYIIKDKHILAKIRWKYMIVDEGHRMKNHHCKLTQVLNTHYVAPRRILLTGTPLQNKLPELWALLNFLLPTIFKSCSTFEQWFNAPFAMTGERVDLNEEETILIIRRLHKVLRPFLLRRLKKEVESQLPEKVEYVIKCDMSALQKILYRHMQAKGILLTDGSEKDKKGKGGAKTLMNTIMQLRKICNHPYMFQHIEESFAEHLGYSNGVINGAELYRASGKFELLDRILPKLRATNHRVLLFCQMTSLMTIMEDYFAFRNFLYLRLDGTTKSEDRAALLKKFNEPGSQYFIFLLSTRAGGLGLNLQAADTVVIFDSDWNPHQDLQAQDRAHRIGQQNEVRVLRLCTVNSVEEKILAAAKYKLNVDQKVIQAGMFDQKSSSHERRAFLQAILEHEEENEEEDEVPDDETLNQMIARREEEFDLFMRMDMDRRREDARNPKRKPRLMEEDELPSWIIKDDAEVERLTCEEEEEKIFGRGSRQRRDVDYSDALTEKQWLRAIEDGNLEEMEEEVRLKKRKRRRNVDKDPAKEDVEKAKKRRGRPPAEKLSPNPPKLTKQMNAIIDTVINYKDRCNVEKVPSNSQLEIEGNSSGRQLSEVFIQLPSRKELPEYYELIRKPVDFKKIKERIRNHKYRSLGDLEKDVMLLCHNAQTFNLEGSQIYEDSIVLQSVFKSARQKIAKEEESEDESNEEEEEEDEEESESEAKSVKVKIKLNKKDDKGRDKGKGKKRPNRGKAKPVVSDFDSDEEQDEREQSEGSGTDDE

As to `Cc1ncsc1-c1ccc(CNC(=O)[C@@H]2C[C@@H](O)CN2C(=O)[C@@H](NC(=O)[C@H]2CC[C@@H](c3cnc(N4CCC(c5cc6cc(-c7ccccc7O)nnc6[nH]5)CC4)nc3)CC2)C(C)(C)C)cc1` (racemic) [Compound 94, (2S,4R)-4-hydroxy-1-((S)-2-((1s,4R)-4-(2-(4-(3-(2-hydroxyphenyl)-7H-pyrrolo[2,3-c]pyridazin-6-yl)piperidin-1-yl)pyrimidin-5-yl)cyclohexane-1-carboxamido)-3,3-dimethylbutanoyl)-N-(4-(4-methylthiazol-5-yl)benzyl)pyrrolidine-2-carboxamide], in test [1], the “BRM HiBit Degradation Maximum (%)” value is listed as “A (“A” indicates maximum degradation ≥ 75%)” and the DC50 is more than 0.01 µM. Besides, in test [2], the Dmax was less than 50%.
`Cc1ncsc1-c1ccc([C@H](C)NC(=O)[C@@H]2C[C@@H](O)CN2C(=O)C(c2cc(N3CCC(C(=O)N4CC(c5c[nH]c6nnc(-c7ccccc7O)cc56)C4)CC3)no2)C(C)C)cc1` (mixture of isomers) [Compound 231, (2S,4R)-4-hydroxy-1-((S)-2-(3-(4-(3-(3-(2-hydroxyphenyl)-7H-pyrrolo[2,3-c]pyridazin-5-yl)azetidine-1-carbonyl)piperidin-1-yl)isoxazol-5-yl)-3-methylbutanoyl)-N-((S)-1-(4-(4-methylthiazol-5-yl)phenyl)ethyl)pyrrolidine-2-carboxamide]: in test [1], the “BRM HiBit Degradation Maximum (%)” value is recorded as “A (“A” indicates maximum degradation ≥ 75%)” and the DC50 was more than 0.1 µM. In test [2], the Dmax is less than 50%.
In the same order, the values of `Cc1ncsc1-c1ccc([C@H](C)NC(=O)[C@@H]2C[C@@H](O)CN2C(=O)[C@@H](c2cc(OCCN3CC[C@H](c4c[nH]c5nnc(-c6ccccc6O)cc45)C3)no2)C(C)C)cc1` (racemic) [Compound 292, (2S,4R)-4-hydroxy-1-((R)-2-(3-(2-((R)-3-(3-(2-hydroxyphenyl)-7H-pyrrolo[2,3-c]pyridazin-5-yl)pyrrolidin-1-yl)ethoxy)isoxazol-5-yl)-3-methylbutanoyl)-N-((S)-1-(4-(4-methylthiazol-5-yl)phenyl)ethyl)pyrrolidine-2-carboxamide] are “B (“B” indicates maximum degradation ≥ 50%)”, more than 0.1 µM and less than 50%.
For `Cc1ncsc1-c1ccc(CNC(=O)[C@@H]2C[C@@H](O)CN2C(=O)[C@@H](NC(=O)CCNC23CC(c4cc5cc(-c6ccccc6O)nnc5[nH]4)(C2)C3)C(C)(C)C)cc1` (racemic) [Compound 296], in test [1], the “BRM HiBit Degradation Maximum (%)” value is on record as “A (“A” indicates maximum degradation ≥ 75%)” and the DC50 was more than 1 µM. For the same molecule, in test [2], the Dmax was more than 50% and the DC50 is more than 1 µM.
As for `Cc1ncsc1-c1ccc([C@H](C)NC(=O)[C@@H]2C[C@@H](O)CN2C(=O)[C@@H](c2cc(N3CCC(C(=O)N4CC5(Cc6cc(-c7ccccc7O)nnc6N5)C4)CC3)no2)C(C)C)cc1` (racemic) [Compound 97, (2S,4R)-4-hydroxy-1-((R)-2-(3-(4-(3′-(2-hydroxyphenyl)-5′,7′-dihydrospiro[azetidine-3,6′-pyrrolo[2,3-c]pyridazine]-1-carbonyl)piperidin-1-yl)isoxazol-5-yl)-3-methylbutanoyl)-N-((S)-1-(4-(4-methylthiazol-5-yl)phenyl)ethyl)pyrrolidine-2-carboxamide], in test [1], the “BRM HiBit Degradation Maximum (%)” value is recorded as “A (“A” indicates maximum degradation ≥ 75%)” and the DC50 is more than 0.1 µM. The Dmax in test [2] is less than 50%.
On to `Cc1ncsc1-c1ccc([C@H](C)NC(=O)[C@@H]2C[C@@H](O)CN2C(=O)[C@@H](c2cc(N3CCN(Cc4cc5cc(-c6ccccc6O)nnc5[nH]4)CC3)no2)C(C)C)cc1` (racemic) [Compound 199, (2S,4R)-4-hydroxy-1-((R)-2-(3-(4-((3-(2-hydroxyphenyl)-7H-pyrrolo[2,3-c]pyridazin-6-yl)methyl)piperazin-1-yl)isoxazol-5-yl)-3-methylbutanoyl)-N-((S)-1-(4-(4-methylthiazol-5-yl)phenyl)ethyl)pyrrolidine-2-carboxamide], for which, in test [1], the “BRM HiBit Degradation Maximum (%)” value is given as “A (“A” indicates maximum degradation ≥ 75%)” and the DC50 is more than 0.01 µM. Besides, in test [2], the Dmax was less than 50%.
On to `Cc1ncsc1-c1ccc([C@H](C)NC(=O)[C@@H]2C[C@@H](O)CN2C(=O)[C@@H](c2cc(OCCN3CC(COc4c[nH]c5nnc(-c6ccccc6O)cc45)C3)no2)C(C)C)cc1` (racemic) [Compound 185, (2S,4R)-4-hydroxy-1-[(2R)-2-(3-{2-[3-{{[3-(2-hydroxyphenyl)-7H-pyrrolo[2,3-c]pyridazin-5-yl]oxy}methyl)azetidin-1-yl]ethoxy}-1,2-oxazol-5-yl)-3-methylbutanoyl]-N-[(1S)-1-[4-(4-methyl-1,3-thiazol-5-yl)phenyl]ethyl]pyrrolidine-2-carboxamide], for which, in test [1], the “BRM HiBit Degradation Maximum (%)” value is “A (“A” indicates maximum degradation ≥ 75%)” and the DC50 was more than 0.1 µM. In test [2], the Dmax is more than 75% and the DC50 is more than 1 µM.
Consider `Cc1ncsc1-c1ccc(CNC(=O)[C@@H]2C[C@@H](O)CN2C(=O)[C@@H](NC(=O)CCCCN2CC(c3cc4cc(-c5ccccc5O)nnc4[nH]3)C2)C(C)(C)C)cc1` (racemic) [Compound 297, (2S,4R)-4-hydroxy-1-((S)-2-(5-(3-(3-(2-hydroxyphenyl)-7H-pyrrolo[2,3-c]pyridazin-6-yl)azetidin-1-yl)pentanamido)-3,3-dimethylbutanoyl)-N-(4-(4-methylthiazol-5-yl)benzyl)pyrrolidine-2-carboxamide], for which the “BRM HiBit Degradation Maximum (%)” value in test [1] is listed as “C (“C” indicates maximum degradation < 50%)”. Besides, in test [2], the Dmax was less than 50%.
On to `Cc1ncsc1-c1ccc(CNC(=O)[C@@H]2C[C@@H](O)CN2C(=O)[C@@H](NC(=O)CCCCCCCCCC(=O)N2CC(c3c[nH]c4nnc(-c5ccccc5O)cc34)C2)C(C)(C)C)cc1` [Compound 37, (2S,4R)-4-hydroxy-1-((S)-2-(11-(3-(3-(2-hydroxyphenyl)-7H-pyrrolo[2,3-c]pyridazin-5-yl)azetidin-1-yl)-11-oxoundecanamido)-3,3-dimethylbutanoyl)-N-(4-(4-methylthiazol-5-yl)benzyl)pyrrolidine-2-carboxamide], for which, in test [1], the “BRM HiBit Degradation Maximum (%)” value is given as “C (“C” indicates maximum degradation < 50%)”. Further, the Dmax in test [2] is less than 50%.
With `Cc1ncsc1-c1ccc([C@H](C)NC(=O)[C@@H]2C[C@@H](O)CN2C(=O)[C@@H](c2cc(C3CCN(C(=O)[C@@H]4CCc5[nH]c6nnc(-c7ccccc7O)cc6c5C4)CC3)no2)C(C)C)cc1` (single isomer, unassigned) [Compound 166], in test [1], the “BRM HiBit Degradation Maximum (%)” value is reported as “A (“A” indicates maximum degradation ≥ 75%)” and the DC50 is more than 0.01 µM. In addition, in test [2], the Dmax was less than 50% and the DC50 was more than 1 µM.
Turning to `O=C1CCC(N2C(=O)c3cccc(NCCOCCOCCC(=O)N4CC(c5cc6cc(-c7ccccc7O)nnc6[nH]5)C4)c3C2=O)C(=O)N1` (stereo not drawn) [Compound 27, 2-(2,6-dioxopiperidin-3-yl)-4-((2-(2-(3-(3-(3-(2-hydroxyphenyl)-7H-pyrrolo[2,3-c]pyridazin-6-yl)azetidin-1-yl)-3-oxopropoxy)ethoxy)ethyl)amino)isoindoline-1,3-dione], the “BRM HiBit Degradation Maximum (%)” value in test [1] is “C (“C” indicates maximum degradation < 50%)”. In test [2], the Dmax was less than 50%.
